“Also recorded” adds a separate entry of the source.
Columns and labels:
[1] = Median toxic dose (TD50) / toxic doses of Compound #8 and reference drugs; details: Sprague-Dawley, rat, in vivo, ip
[2] = system: submissive rats; test: Dominant-Submissive Relations (DSR) assay: Reduction of Submissive Behavior Model (RSBM) of depression; type: in vivo, rat
Procedure: (§1) The DSR assay is divided into two models: Reduction of Dominant Behavior Model (RDBM) of mania and Reduction of Submissive Behavior Model (RSBM) of depression. The RDBM, wherein the dominant animals are treated with test compound, is predictive of the ability of the test compound to treat mania. The RSBM, wherein the submissive animals are treated with test compound, is predictive of the ability of the test compound to treat depression.
(§2) Male Sprague Dawley rats (140 to 160 g) from Charles River Laboratories Wilmington, Mass. were used in this assay. Shipments of rats were received at two-week intervals. Each shipment went through five-day quarantine, one-week acclimation period, and one-week selection process, followed by five-weeks of drug or vehicle treatment to those pairs selected.
(§3) Rats were housed four per cage. Access to food was restricted to one hour per day after testing on Monday through Thursday. After testing on Friday, rats had free access to food until being fasted again on Sunday. At no time were the rats deprived of water. The food deprivation periods used had little effect on weight gain as the average weight of rats was about 300 g at the end of the study. At the conclusion of experiment rats were sacrificed by decapitation, the trunk blood and brains were collected for in vitro experiments and drug concentration measurements.
(§4) The basic testing apparatus consisted of two chambers connected with a tunnel only large enough to allow one rat to pass through at a time. On the floor, at the mid-point of the tunnel was a container of sweetened milk. This basic apparatus was replicated, so that a total of four pairs of rats can be video tracked simultaneously. The camera can distinguish rats marked by different colors. Thus, the rats' heads were colored for the purpose of video tracking, red in one cage and yellow in the other cage. Only one animal at a time can have comfortable access to the feeder, but both animals can drink milk during the five-minute daily session. During the five-minute daily sessions, time spent in the feeder zone by each rat was recorded by the video tracking software and saved into a text file.
The test began with a random assignment of rats into pairs. Each member of a pair was placed in an opposite chamber of the testing apparatus. The time spent in the feeder zone by each animal was recorded. During the first week (five days) of testing the animals habituate to the new environment. Dominance was assigned to the animal with the highest score during the second week of testing if three criteria were achieved. First, there must have been a significant difference (two-tailed t-test, P<0.05) between the average daily drinking scores of both animals. Second, the dominant animal score must have been at least 25% greater than the submissive animal's score. Finally, there must have been no “reversals” during the pair selection week where the putative submissive rat out-scored its dominant partner on isolated occasions. Ideally there were minimal reversals during the acclimation week as well. About twenty-five to thirty-three percent of the initial animal pairs achieved these criteria and only these pairs were continued in the study. […]
(§5) Significant differences between time spent on the feeder by dominant and submissive rats were determined by ANOVA using GraphPad Prism software (GraphPad Software, Inc. San Diego, Calif.) followed by a two-tailed t-test (P<0.05). Comparisons were made between treatment groups using normalized dominance level values in paired animals. The dominance level is a value that measures social relation between paired subjects. Dominance level (DL)=FTD−FTS where FTD is the feeder time of dominant rats and FTS is the feeder time of submissive rats. The normalization was conducted according to the formula: Dominance Level(week n in %)=(Dominance Level(week n))/(Dominance Level(week 2) […]

[3] = system: hippocampal kindled seizures; test: Rat Hippocampal Kindling Test (Interruption of Kindled State); type: in vivo
Procedure: In the present rapid hippocampal kindling model adult male Sprague-Dawley rats (300-400 g) were surgically implanted with bipolar electrodes placed in the hippocampus. […] One week later, the rats received 2-3 supra-threshold stimulations delivered every 30 min before treatment with test compound, to ensure stability of the behavioral seizure stage and after-discharge duration. Fifteen minutes after the last stimulation, a single dose of vehicle or test compound was administered i.p. (intraperitoneally). After 15 min, each rat was then stimulated every 30 min for 3 to 4 h. After each stimulation, individual seizure scores and after-discharge durations were recorded. The group mean±SEM were calculated for each parameter. Eight rats per dose and a minimum of four doses were used to establish an ED50 value. Efficacy was measured as the ability of a compound to modify the seizure score (severity of spread) and after-discharge duration (ADD; excitability) of the generalized seizures.
Thus, according to the theories presented in current literature (Ghaemi, S. N., Boiman, E. E., and Goodwin, F. K., Soc. of Bio. Psychiatry, (1999), vol. 45, pp 137-144; Stoll, A. L., and Severus, W. E., Harvard Rev. Psychiatry, July/August (1996), Vol. 4, No. 2, pp 77-89) a decrease in seizure score and/or ADD may also be predictive of the ability of a test compound to treat the cycling associated with bipolar disorder.

[4] = system: dominant rats; test: Dominant-Submissive Relations (DSR) assay: Reduction of Dominant Behavior Model (RDBM) of mania; type: in vivo, rat
Procedure: as §1, §2, §3, §4
The test began with a random assignment of rats into pairs. Each member of a pair was placed in an opposite chamber of the testing apparatus. The time spent in the feeder zone by each animal was recorded. During the first week (five days) of testing the animals habituate to the new environment. Dominance was assigned to the animal with the highest score during the second week of testing if three criteria were achieved. First, there must have been a significant difference (two-tailed t-test, P<0.05) between the average daily drinking scores of both animals. Second, the dominant animal score must have been at least 25% greater than the submissive animal's score. Finally, there must have been no “reversals” during the pair selection week where the putative submissive rat out-scored its dominant partner on isolated occasions. Ideally there were minimal reversals during the acclimation week as well. About twenty-five to thirty-three percent of the initial animal pairs achieved these criteria and only these pairs were continued in the study.
as §5

SMILES: NS(=O)(=O)NC[C@H]1COc2cc(Cl)ccc2O1 [Compound #8, (2S)-(−)-N-(6-Chloro-2,3-dihydro-benzo[1,4]dioxin-2-ylmethyl)-sulfamide]
- TD50 [1]: ~100 mg/kg
- loss of significance between dominant and submissive rats feeder time ([2]; 2.5 mg/kg and 120.0 mg/kg p.o.): no consistent loss of significance
- Activity Onset Time at the 50% effect (AOT50) ([2]; 2.5 mg/kg p.o.): 2.1 days
- Dominance Level (DL) values vs control ([2]; 2.5 mg/kg p.o.): did not significantly differ from control
- maximum of the effect (non-linear regression), ± SEM ([2]; 2.5 mg/kg p.o.): 52.4±32.7%
- Activity Onset Time at the 50% effect (AOT50) ([2]; 12 mg/kg p.o.): 5.3 days
- maximum of the effect (non-linear regression), ± SEM ([2]; 12 mg/kg p.o.): 87.9±42.6%
- Dominance Level (DL) values vs control ([2]; 12.0 mg/kg p.o.): significantly different from vehicle treated controls after the second, fourth and fifth week of treatment
- first day of consistent lack of statistical significance between feeder time of dominant and submissive rats (activity onset time) ([2]; 12.0 mg/kg p.o.): 6 days
- Activity Onset Time at the 50% effect (AOT50) ([2]; 60 mg/kg p.o.): 1.6 days
- Dominance Level (DL) values vs control ([2]; 60 mg/kg p.o.): significant difference in DL values relative to vehicle starting at the first week and continuing through the treatment duration of 5 weeks
- first day of consistent lack of statistical significance between feeder time of dominant and submissive rats (activity onset time) ([2]; 60 mg/kg p.o.): 4 days
- maximum of the effect (non-linear regression), ± SEM ([2]; 60 mg/kg p.o.): 116.9±29.5%
- Dominance Level (DL) values vs control ([2]; 120 mg/kg p.o., significance dissipated after the second week): significantly different from the control group after first week
- submissiveness during first week of treatment ([2]; fluoxetine 10 mg/kg i.p., Compound #8 treated groups p.o.): did not show this effect
- submissive behavior ([2]; p.o. once a day for 5 weeks, 2.5-120 mg/kg): reduce submissive behavior in a dose-dependent manner; also recorded: reduced submissive behavior
- Emax in the RSBM ([2]; p.o., calculated): 131.4±4.7%
- significant difference between dominant and submissive rats lost ([2]; submissive rats treated p.o., all doses used (2.5, 12, 60, 120 mg/kg)): lost after the first week of treatment
- rats with significant reduction in global seizure activity (score <3) ([3]; after treatment i.p.): 6 out of 8
- rats with seizure scores significantly reduced from 5 to 1 ([3]; i.p., p=0.0003): 4 out of 8
- effect on the ADD (after-discharge duration) ([3]; i.p., p=0.07): no statistically significant effect
- AOT50 compared with lithium ([4]; 0.05 mg/kg and 0.5 mg/kg, non-linear regression fit of normalized daily DL values): significantly shorter from that of lithium
- first day of consistent lack of statistical significance between feeder time of dominant and submissive rats (activity onset time) ([4]; 0.05 mg/kg p.o. QD): 3 days
- first day of consistent lack of statistical significance between feeder time of dominant and submissive rats (activity onset time) ([4]; 0.5 mg/kg p.o. QD): 4 days
- dominance level (DL) values vs vehicle ([4]; 0.5 mg/kg p.o. QD, 5 weeks, strongest effect): significant difference in dominance level (DL) values between vehicle and compound treated rats starting in the second week
- first day of consistent lack of statistical significance between feeder time of dominant and submissive rats (activity onset time) ([4]; 2.5 mg/kg p.o. QD): 10 days
- dominance level (DL) response ([4]; 2.5 mg/kg, 5.0 mg/kg and 50.0 mg/kg p.o., compared with 0.5 mg/kg dose (not significantly different)): weaker response
- first day of consistent lack of statistical significance between feeder time of dominant and submissive rats (activity onset time) ([4]; 5.0 mg/kg p.o. QD): 11 days
- first day of consistent lack of statistical significance between feeder time of dominant and submissive rats (activity onset time) ([4]; 50.0 mg/kg p.o. QD): 3 days
- ED50 ([4]; Rattus norvegicus, po, p.o. QD, calculated): 0.03 ± 0.004 mg/kg
- difference between dominant and submissive rats lost ([4]; dominant rats treated p.o. QD at 0.05 mg/kg, 0.5 mg/kg and 50.0 mg/kg): lost after the first week of treatment
- difference between dominant and submissive rats lost ([4]; dominant rats treated p.o. QD at 2.5 mg/kg and 5.0 mg/kg): after the second week of treatment
- dominant behavior ([4]; overall result of the assay): reduced dominant behavior
- Emax in the RDBM ([4]; p.o. QD, calculated): 116.4±2.3%
- permissiveness of the treated dominant rats ([4]; treated dominant rats permitted submissive partners to increase time on the feeder): observed to increase
